Assay in all cases: inhibition of tumour cell growth, NCI panel, 48 h
Assay [1] concerns NCI-H460 lung.
Assay [2] has as its system KM12 colon.
Assay [3] has as its system BT-549 breast.
The test system of assay [4] is 786-0 renal.
Assay [5] has as its system SF-295 CNS.
Assay [6] relates to HOP-92 NSCLC.
Assay [7] has as its system RXF 393 renal.
The subject of assay [8] is SK-MEL-2 melanoma.
Assay [9] relates to NCI/ADR-RES ovarian.
The subject of assay [10] is SK-MEL-5 melanoma.
For assay [11], the system named is UACC-62 melanoma.

Each structure is given as a SMILES string.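 Tested at 5 concentrations; 48 h exposure; 96-well plates; endpoints linearly interpolated, else capped at highest concentration. Definition used: TGI = concentration required for complete inhibition of growth.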 Bounds are passed on as bounds.

Turning to `Cc1cc(O)c2c(=O)c3ccccc3[nH]c2c1`, the TGI was > 100 µM in assay [1]; > 100 µM in assay [2]; 85.3 µM in [3]; > 100 µM in assay [4]; 51.2 µM in assay [5]; > 100 µM in assay [6]. The TGI was 82.8 µM in assay [7], > 100 µM in assay [8], > 100 µM in assay [9] and 31.1 µM in assay [10].
Turning to `c1ccc(N=C2SC3=Nc4cccc5cccc(c45)N3C2=Nc2ccccc2)cc1`, the TGI in [1], in assay [2], in assay [3], in [5], in [6] and in assay [7] was > 100 µM throughout. Also, the TGI in assay [11], in assay [8], in assay [9] and in [10] was > 100 µM in each case.
For `Cc1ccsc1/C=N/Nc1ncccn1`, the TGI in assay [2], in [3], in [4], in assay [5], in assay [6] and in assay [7] was > 100 µM in each case. The TGI in assay [11], in [8], in assay [9] and in [10] was > 100 µM throughout.
Consider `Oc1ccc(-c2nc(-c3cccnc3)c(-c3ccc(F)cc3)[nH]2)cc1`, for which the TGI in [1] amounted to 63.9 µM; in assay [2] it was 33.2 µM; in assay [3] it was 32.6 µM; in assay [4], 59 µM; in [5], 32 µM; in assay [7], 33.9 µM. Also, the TGI in [11] worked out at 29.6 µM; in assay [8], 34.6 µM; in [9] it was 42.6 µM; in [10] it was 33.8 µM.
As for `O=C1CCC(=O)N1n1c(Cc2ccccc2)n[nH]c1=O`, the TGI is > 100 µM in assay [1]; 46.4 µM in [2]; > 100 µM in [3]; > 100 µM in assay [4]; > 100 µM in assay [5]; > 100 µM in assay [7]. Moreover, the TGI in [11], in [8], in assay [9] and in assay [10] was > 100 µM in each case.
As for `CC1=C(C)[C@@]2(C)O[C@@]2(C)O[C@@]2(C)O[C@@]12C`, the TGI in assay [2], in assay [3], in assay [5], in assay [6], in assay [11] and in [8] was > 100 µM in each case. Moreover, the TGI in [9] and in assay [10] was > 100 µM each time.
In the case of `C=C(Br)C(C)(Cl)CCC(Br)C(C)(C)Cl` (stereo not drawn), the TGI in assay [1] is > 100 µM; in [2], > 100 µM; in [3] it was > 100 µM; in [4], 39.9 µM; in assay [5], > 100 µM; in assay [6] it was 95.6 µM. For the same compound, the TGI in assay [7] is 65.1 µM; in assay [11], > 100 µM; in assay [9], > 100 µM; in assay [10] it was > 100 µM.
With `COC(=O)C1CCC(=O)N1C(c1ccccc1)c1ccc(OC)c(OC)c1` (stereo not drawn), the TGI in assay [1], in assay [2], in [3], in [4], in assay [5] and in [6] was > 100 µM each time. The TGI in [11], in assay [8], in assay [9] and in assay [10] was > 100 µM each time.
For `O=C(O)CN(CC(=O)O)C1CCCCC1N(CC(=O)O)CC(=O)NCCN=C=S` (stereo not drawn), the TGI in assay [1], in assay [2], in assay [3], in assay [5], in assay [6] and in assay [7] was > 100 µM in each case. In addition, the TGI in [11], in [8], in [9] and in [10] was > 100 µM throughout.
As to `NC(=O)C(c1ccccc1)N1OC2C(=O)N(c3ccccc3)C(=O)C2C1c1c2ccccc2c(Cl)c2ccccc12` (stereo not drawn), the TGI in assay [2], in assay [3], in assay [4], in assay [5], in assay [6] and in [7] was > 100 µM each time. Besides, the TGI in [11], in assay [8], in assay [9] and in assay [10] was > 100 µM in each case.
Consider `Oc1cccc2c(Cl)ccnc12`, for which the TGI was > 100 µM in assay [1]; 82.3 µM in assay [2]; > 100 µM in assay [3]; > 100 µM in assay [4]; > 100 µM in [5]; 21.5 µM in assay [6]. Further, the TGI in assay [7] is 7.95 µM; in assay [11], 8.45 µM; in assay [9] it was > 100 µM; in [10], 14.8 µM.
With `Nc1cccc2cc(Cl)cnc12`, the TGI in assay [1], in assay [2], in assay [3], in assay [4], in assay [5] and in assay [6] was > 100 µM throughout. Also, the TGI in assay [7], in assay [11], in assay [9] and in assay [10] was > 100 µM throughout.
Turning to `CCOC(=O)c1c2ccccc2n2c(N)c(C(N)=O)nnc12`, the TGI in assay [1] was > 100 µM; in assay [2], > 100 µM; in assay [3], 89.9 µM; in assay [4], > 100 µM; in assay [5] it was > 100 µM; in assay [7], 41.6 µM. Also, the TGI is 81.1 µM in assay [11], > 100 µM in [8], > 100 µM in assay [9] and > 100 µM in assay [10].

The values are drawn from PubChem BioAssay (NCI).
